Results from patent EP0096293A1, “N-acetylglucosamine derivatives, process for their preparation and their use to combat malaria” (BEHRINGWERKE Aktiengesellschaft, priority 1982, dated 1983).
Counter-ions that a name gives are not always drawn.

Columns and labels:
P. falciparum [1] = conditions: findings of Vanderberg et al. (Exp. Parasitol. 1981); cited from earlier work
P. falciparum-Merozoiten [2] = conditions: synchronous in vitro culture, addition of the sugar; findings of Vanderberg et al. (Exp. Parasitol. 1981); cited from earlier work
P. falciparum [3] = assay: Intraerythrocytic growth of malaria parasites (toxicity to the parasite); assay type: cell-based; conditions: applicant's own finding, contrary to Vanderberg et al.
P. falciparum-Merozoiten [4] = assay: Invasion of human erythrocytes by P. falciparum merozoites in synchronous in vitro culture; assay type: cell-based; conditions: compared with other methyl glycosides (methyl gluco-, galacto-, fuco-, mannopyranosides)

Row | SMILES | intraerythrozytäre Wachstum der Malaria-Parasiten (P. falciparum [1]) | Befall von Humanerythrozyten durch P. falciparum-Merozoiten (P. falciparum-Merozoiten [2]) | intraerythrozytäre Parasiten-Wachstum (toxisch) (P. falciparum [3]) | invasionsinhibierende Wirkung (P. falciparum-Merozoiten [4])
1 | CC(=O)N[C@H]1C(O)O[C@H](CO)[C@@H](O)[C@@H]1O (stereo partly drawn) [DGlcNAc, N-Acetyl-D-glucosamin] | nicht aber durch N-Acetyl-D-Glucosamin gehemmt | gehemmt | toxisch | –
2 | CO[C@H]1O[C@H](CO)[C@@H](O)[C@H](O)[C@H]1NC(C)=O [α-DGlcNAcOMe, Methyl-2 -acetamido- 2 -desoxy-alpha oder beta-D-glucopyranosid] | – | – | nicht toxisch | stark erhöhte invasionsinhibierende Wirkung
3 | N[C@H]1C(O)O[C@H](CO)[C@@H](O)[C@@H]1O (stereo partly drawn) [DGlcNH3Cl, D-Glucosaminhydrochlorid] | gehemmt | gehemmt | – | –
4 | C[C@@H]1OC(O)[C@@H](O)[C@H](O)[C@@H]1O (stereo partly drawn) [L-Fucose] | gehemmt | gehemmt | nicht toxisch | –
5 | CO[C@@H]1O[C@H](CO)[C@@H](O)[C@H](O)[C@H]1NC(C)=O [β-DGlcNAcOMe, Methyl-2 -acetamido- 2 -desoxy-alpha oder beta-D-glucopyranosid] | – | – | nicht toxisch | stark erhöhte invasionsinhibierende Wirkung
